Blank lines part the entries; values can stand above or below the molecule they belong to.
Legend:
[1] = target: T1, human monocarboxylate transporter 6 (hMCT6) (Homo sapiens, UniProt O15375); experiment: cis-inhibition of [3H]PGF2α uptake in oocytes at […]; format: cell-based; settings: read-out: % inhibition at 10 μM (range over the PGs)
T1 construct: gene SLC16A5
T1 sequence (O15375 1-505): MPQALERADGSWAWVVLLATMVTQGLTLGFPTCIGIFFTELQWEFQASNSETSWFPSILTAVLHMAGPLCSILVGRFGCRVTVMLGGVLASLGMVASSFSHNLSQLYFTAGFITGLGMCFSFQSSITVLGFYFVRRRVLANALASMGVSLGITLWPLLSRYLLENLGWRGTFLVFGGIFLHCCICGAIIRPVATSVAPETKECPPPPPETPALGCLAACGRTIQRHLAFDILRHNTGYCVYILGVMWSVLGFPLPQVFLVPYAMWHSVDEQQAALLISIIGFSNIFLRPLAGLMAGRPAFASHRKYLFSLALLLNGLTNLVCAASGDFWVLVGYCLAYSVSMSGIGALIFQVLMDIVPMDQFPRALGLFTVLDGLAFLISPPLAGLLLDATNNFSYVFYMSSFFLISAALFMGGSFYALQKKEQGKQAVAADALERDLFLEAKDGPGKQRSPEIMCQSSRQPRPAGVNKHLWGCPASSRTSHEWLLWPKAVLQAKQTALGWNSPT

[2] = target: T2, murine monocarboxylate transporter 6 (mMct6) (Mus musculus, UniProt G5E8K6); experiment: cis-inhibition of [3H]PGF2α uptake in oocytes, […] ([…] inhibition); format: cell-based
T2 construct: gene Slc16a5; full-length, untagged, cRNA in Xenopus laevis oocytes
T2 sequence (G5E8K6 1-468): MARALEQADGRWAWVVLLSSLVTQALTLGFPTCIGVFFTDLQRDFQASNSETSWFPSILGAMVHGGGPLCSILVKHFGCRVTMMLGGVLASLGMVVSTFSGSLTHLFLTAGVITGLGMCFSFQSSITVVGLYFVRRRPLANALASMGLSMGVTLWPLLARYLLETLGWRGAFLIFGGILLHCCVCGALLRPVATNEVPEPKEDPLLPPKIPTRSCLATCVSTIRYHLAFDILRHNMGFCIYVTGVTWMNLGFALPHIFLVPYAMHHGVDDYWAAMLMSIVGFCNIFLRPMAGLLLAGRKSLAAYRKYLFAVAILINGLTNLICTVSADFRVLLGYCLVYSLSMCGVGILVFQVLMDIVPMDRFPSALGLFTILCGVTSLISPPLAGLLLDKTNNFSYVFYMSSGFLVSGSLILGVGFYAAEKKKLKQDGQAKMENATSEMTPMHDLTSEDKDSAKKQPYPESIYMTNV

[3] = target: T1, human monocarboxylate transporter 6 (hMCT6); experiment: cis-inhibition of [3H]PGF2α uptake in oocytes; format: cell-based
[4] = target: T2, murine monocarboxylate transporter 6 (mMct6); experiment: cis-inhibition of [3H]PGF2α uptake in oocytes, […] ([…] inhibition); format: cell-based; remark: listed apart in the source
[5] = substrate: CCCCC[C@H](O)/C=C/[C@@H]1[C@@H](C/C=C\CCCC(=O)O)[C@@H](O)C[C@H]1O; experiment: cells, lysate or membranes; format: cell-based, Homo sapiens; settings: pH 7.4
[6] = substrate: CCCCC[C@H](O)/C=C/[C@@H]1[C@@H](C/C=C\CCCC(=O)O)[C@@H](O)C[C@H]1O; experiment: cells, lysate or membranes; format: cell-based, Mus musculus; settings: pH 7.4

inhibition at 10 µM [1]: 51 to 74%
Molecule: CCCCC[C@H](O)/C=C/[C@@H]1[C@@H](CC(=O)CCCCC(=O)O)[C@@H](O)C[C@H]1O [6-keto prostaglandin F1α]

inhibition at 10 µM [2]: ~28%
Molecule: CCCCNc1cc(C(=O)O)cc(S(N)(=O)=O)c1Oc1ccccc1 [bumetanide]
cis-inhibition of [3H]PGF2α uptake in oocytes [3]: Bumetanide and probenecid also inhibited human MCT6-mediated PGF2α uptake

inhibition at 500 µM [4]: ~94%
Molecule: CCCN(CCC)S(=O)(=O)c1ccc(C(=O)O)cc1 [probenecid]
cis-inhibition of [3H]PGF2α uptake in oocytes [3]: Bumetanide and probenecid also inhibited human MCT6-mediated PGF2α uptake

Molecule: CCCCC[C@H](O)/C=C/[C@H]1C(=O)C[C@H](O)[C@@H]1C/C=C\CCCC(=O)O [prostaglandin D2]
inhibition at 10 µM [1]: 51 to 74%

Molecule: CCCCC[C@H](O)/C=C/[C@H]1[C@H](O)CC(=O)[C@@H]1C/C=C\CCCC(=O)O [prostaglandin E2]
inhibition at 10 µM [1]: 51 to 74%

B1: human monocarboxylate transporter 6 (hMCT6) (Homo sapiens) (protein)
chain: MPQALERADGSWAWVVLLATMVTQGLTLGFPTCIGIFFTELQWEFQASNSETSWFPSILTAVLHMAGPLCSILVGRFGCRVTVMLGGVLASLGMVASSFSHNLSQLYFTAGFITGLGMCFSFQSSITVLGFYFVRRRVLANALASMGVSLGITLWPLLSRYLLENLGWRGTFLVFGGIFLHCCICGAIIRPVATSVAPETKECPPPPPETPALGCLAACGRTIQRHLAFDILRHNTGYCVYILGVMWSVLGFPLPQVFLVPYAMWHSVDEQQAALLISIIGFSNIFLRPLAGLMAGRPAFASHRKYLFSLALLLNGLTNLVCAASGDFWVLVGYCLAYSVSMSGIGALIFQVLMDIVPMDQFPRALGLFTVLDGLAFLISPPLAGLLLDATNNFSYVFYMSSFFLISAALFMGGSFYALQKKEQGKQAVAADALERDLFLEAKDGPGKQRSPEIMCQSSRQPRPAGVNKHLWGCPASSRTSHEWLLWPKAVLQAKQTALGWNSPT
notes: pGH19-hMCT6 cRNA in Xenopus laevis oocytes
Km [5]: 246 µM

B2: murine monocarboxylate transporter 6 (mMct6) (Mus musculus) (protein)
chain: MARALEQADGRWAWVVLLSSLVTQALTLGFPTCIGVFFTDLQRDFQASNSETSWFPSILGAMVHGGGPLCSILVKHFGCRVTMMLGGVLASLGMVVSTFSGSLTHLFLTAGVITGLGMCFSFQSSITVVGLYFVRRRPLANALASMGLSMGVTLWPLLARYLLETLGWRGAFLIFGGILLHCCVCGALLRPVATNEVPEPKEDPLLPPKIPTRSCLATCVSTIRYHLAFDILRHNMGFCIYVTGVTWMNLGFALPHIFLVPYAMHHGVDDYWAAMLMSIVGFCNIFLRPMAGLLLAGRKSLAAYRKYLFAVAILINGLTNLICTVSADFRVLLGYCLVYSLSMCGVGILVFQVLMDIVPMDRFPSALGLFTILCGVTSLISPPLAGLLLDKTNNFSYVFYMSSGFLVSGSLILGVGFYAAEKKKLKQDGQAKMENATSEMTPMHDLTSEDKDSAKKQPYPESIYMTNV
notes: full-length, untagged, cRNA (NM_001080934.1) in Xenopus laevis oocytes
Km [6]: 40.1 µM

From paper PMC7150767, “Monocarboxylate Transporter 6-Mediated Interactions with Prostaglandin F2α: In Vitro and In Vivo Evidence Utilizing a Knockout Mouse Model” (Pharmaceutics, 2020)
